Data on 41 compounds can be found in the supplement of paper PMC10290057.

Structures are written as SMILES.

Test [1] has as its system HCT116. Kind of test: AC50 cell viability (CellTiter-Glo); higher = less potent. The following applies: 48 h.
In test [2] the test system is HCT116. Kind of test: efficacy (fitted maximal change in viability relative to DMSO control); higher = less cytotoxic (negative = loss of viability). The following applies: 48 h.
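Wherever AC50 cell viability (CellTiter-Glo) is given: HCT116 colorectal carcinoma cells screened at five concentrations per compound, luminescent viability scaled between DMSO wells and empty wells on each plate, curves fitted per compound.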
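Wherever efficacy (fitted maximal change in viability relative to DMSO control) is given: Luminescence-based viability readout, five doses per compound, normalized against on-plate DMSO and empty-well controls, followed by dose-response curve fitting for every drug.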

Take `C=CC(=O)Nc1ccc2ncnc(Nc3cccc(Br)c3)c2c1`: in the test with HCT116 [1], the AC50 cell viability came to 13.2 µM. For the same compound, the efficacy in the test with HCT116 [2] was -86.8%.

For the compound `c1ccc2c(-c3cnn4cc(-c5ccc(N6CCNCC6)cc5)cnc34)ccnc2c1`, in the test with HCT116 [1], the AC50 cell viability was 2.35 µM. Also, the efficacy with HCT116 [2] is -104%.

In the test with HCT116 [1], `C/C(=N\NC(=S)N1CCC1)c1ccccn1` gave an AC50 cell viability of 0.0295 µM. In addition, the efficacy in the test with HCT116 [2] is -85.2%.

`CC(C)C[C@H](NC(=O)c1cc2ccccc2s1)C(=O)N1CCN(C(=O)[C@H](CO)N[S+](=O)([O-])c2ccc(Cl)cc2Cl)CC1` showed an AC50 cell viability with HCT116 [1] of 16.6 µM. In addition, the efficacy in the test with HCT116 [2] was -76.8%.

In turn, `CC(C)N(CCC(=O)c1ccc2ccccc2c1)Cc1ccccc1` gave an AC50 cell viability in the test with HCT116 [1] of 20.9 µM. Also, in the test on HCT116 [2], the efficacy is -77.8%.

The compound `CC(C)[C@@H](N(CCCN)C(=O)C1=CC=C(C)C=C1)C/2=C(\CC3=CC=CC=C3)C(=O)C4=C(O2)C=C(Cl)C=C4` had an AC50 cell viability in the test on HCT116 [1] of 8.33 µM. In addition, the efficacy in the test with HCT116 [2] is -34.7%.

In turn, `CC(C)[N]1C=C(C)C2=C1C=C(C=C2C(=O)NC\C3=C(C)\C=C(C)/NC3=O)C4=CC=C(N=C4)N5CCN(C)CC5` showed an AC50 cell viability with HCT116 [1] of 20.9 µM. Moreover, in the test on HCT116 [2], the efficacy is -96.9%.

The compound `CC(O)(C#Cc1ccc2c(c1)N(c1nc(N)ncc1Cl)CC2)c1nccs1` (configuration not stated) showed an AC50 cell viability in the test on HCT116 [1] of 16.6 µM. Besides, in the test on HCT116 [2], the efficacy is -76.1%.

In the case of `Cc1cccc(-c2n[nH]cc2-c2ccc(F)c(-c3cnn(CCO)c3)c2)n1`, the AC50 cell viability in the test with HCT116 [1] stood at 26.3 µM. Moreover, the efficacy in the test on HCT116 [2] was -71.1%.

In turn, `CCc1cc(-c2n[nH]c(C)c2-c2ccc3c(c2)OCCO3)c(O)cc1O` returned an AC50 cell viability in the test with HCT116 [1] of 7.42 µM. Also, in the test with HCT116 [2], the efficacy is -87%.

As to `CCN1C(=O)N\2CC3=CC(=CC(=C3[C@@H](C)\C=C2C14CCN(CC4)CC5=CC(=CC(=C5)C)C)OC)OC`, in the test on HCT116 [1], the AC50 cell viability was 23.5 µM. Moreover, the efficacy in the test on HCT116 [2] was -91.8%.

Regarding `CCOC\1=C(/C(=O)NC2=CC=C(OC3=C(Cl)C(=NC=C3)N)C(=C2)F)C(=O)N(\C=C1)C4=CC=C(F)C=C4`, the AC50 cell viability with HCT116 [1] amounted to 18.6 µM. Besides, the efficacy in the test with HCT116 [2] was -67.3%.

In the test with HCT116 [1], `CC[C@@H]1[C@H](F)C(=O)N[C@@H]1COc1nccc2cc(C(N)=O)c(OC)cc12` showed an AC50 cell viability of 13.2 µM. For the same compound, the efficacy with HCT116 [2] is -66.9%.

Turning to `CN(C)Cc1ccc(-c2nc3cccc4c3n2CCNC4=O)cc1`, the AC50 cell viability with HCT116 [1] came to 5.9 µM. Also, the efficacy in the test on HCT116 [2] is -65.6%.

Turning to `Cc1nc(Nc2n[nH]c3c2CN(C(=O)N[C@H](CN(C)C)c2ccccc2)C3(C)C)c2sccc2n1`, the AC50 cell viability with HCT116 [1] turned out to be 0.0186 µM. Besides, in the test with HCT116 [2], the efficacy is -64.7%.

On to `Cc1cc(CN2CCN(c3c(Br)cnc4[nH]c(-c5ccc(N6CCN(C)CC6)cc5)nc34)CC2)no1`, for which the AC50 cell viability in the test with HCT116 [1] stood at 5.25 µM. For the same compound, the efficacy in the test with HCT116 [2] is -119%.

With `Cc1cnc(Nc2ccc(N3CCN(C)CC3)cc2)nc1Nc1cccc([S+](=O)([O-])NC(C)(C)C)c1`, in the test with HCT116 [1], the AC50 cell viability stood at 1.86 µM. The efficacy in the test with HCT116 [2] was -89.5%.

For `CNC(=O)c1ccc2c(c1)NC(=O)/C2=C(\Nc1cccc(CN(C)C)c1)c1ccccc1`, the AC50 cell viability with HCT116 [1] was 18.6 µM. The efficacy with HCT116 [2] is -93.1%.

Regarding `CNCCN(C)Cc1c[nH]nc1-c1ccc(O[C@H]2C[C@H](OCCC3CCOCC3)C2)cc1`, in the test on HCT116 [1], the AC50 cell viability stood at 18.6 µM. In addition, the efficacy with HCT116 [2] is -52%.

For the compound `CN[S+]([O-])(=O)NC1=NC=CC(=C1F)CC/2=C(C)/C3=CC=C(OC4=NC=CC=N4)C=C3OC2=O`, the AC50 cell viability in the test on HCT116 [1] amounted to 1.66 µM. In the test with HCT116 [2], the efficacy is -43.7%.

Compound `COc1cccc(Nc2ncnn3ccc(CN4CC[C@@H](N)[C@H](O)C4)c23)c1` returned an AC50 cell viability in the test with HCT116 [1] of 18.6 µM. Moreover, the efficacy in the test with HCT116 [2] was -71.1%.

For the compound `COc1cc(-c2nn(C3CCC(N4CCN(C(C)=O)CC4)CC3)c3ncnc(N)c23)ccc1NC(=O)c1cc2ccccc2n1C` (configuration not stated), the AC50 cell viability in the test with HCT116 [1] was 10.5 µM. Moreover, in the test with HCT116 [2], the efficacy was -90.5%.

In the test on HCT116 [1], `COc1ccc(-c2oc3ncnc(N)c3c2-c2ccc(NC(=O)Nc3cc(C(F)(F)F)ccc3F)cc2)cc1` had an AC50 cell viability of 4.68 µM. Also, the efficacy with HCT116 [2] is -70.5%.

In the test on HCT116 [1], `COc1ccc(Cn2ccc3ccc(C(=O)NO)cc32)cc1` yielded an AC50 cell viability of 16.6 µM. For the same compound, the efficacy in the test on HCT116 [2] is -71.9%.

For the compound `COc1ccc(Oc2cc(NCCC(F)(F)F)c3ncc(-c4ccc(C(=O)NC5CC5)c(C)c4)n3n2)c(F)c1F`, in the test on HCT116 [1], the AC50 cell viability turned out to be 0.372 µM. Besides, the efficacy in the test with HCT116 [2] is -56.8%.

Take `C[C@@H]1COCCN1c1cc(-c2ccnn2C)c2ccnc(-c3ccn[nH]3)c2n1`: the AC50 cell viability in the test with HCT116 [1] stood at 0.525 µM. Further, in the test on HCT116 [2], the efficacy was -70.3%.

`C[C@@H](C(=O)Nc1ccc(Cl)cc1)[C@H]1CC[C@@H](c2ccnc3ccc(F)cc32)CC1` displayed an AC50 cell viability in the test on HCT116 [1] of 18.6 µM. The efficacy in the test with HCT116 [2] is -47.3%.

Take `C[C@H]1CN(C[C@@H](C)O1)CC(=O)NC2=CC=C3SC4=C(CC3=C2)C=CC=C4\C5=C\C(=O)\C=C(/O5)N6CCOCC6`: the AC50 cell viability in the test with HCT116 [1] was found to be 5.9 µM. In the test with HCT116 [2], the efficacy was -51.9%.

`C[N]1C=C(C=N1)C2=CC=C3N=CC\4=C(N(C(=O)\C=C4)C5=CC6=C(CCN6C(=O)C=C)C=C5)C3=C2` gave an AC50 cell viability with HCT116 [1] of 0.512 µM. Further, the efficacy in the test with HCT116 [2] was -78.5%.

Consider `Cn1cc(-c2ccc(F)c(C(F)(F)F)c2)nc1C1CCN(c2ncnc3[nH]ncc23)CC1`, for which the AC50 cell viability in the test on HCT116 [1] was found to be 16.6 µM. In the test on HCT116 [2], the efficacy was -40.4%.

In turn, `Cn1ncc(Cl)c1-c1cc(C(=O)N[C@H](CN)Cc2cccc(F)c2)sc1Cl` showed an AC50 cell viability in the test on HCT116 [1] of 14.8 µM. The efficacy in the test on HCT116 [2] is -103%.

In turn, `FC(F)(F)C1=CC=C2C(SCCCCCO\C3=C\O\C(CN4CCOCC4)=C/C3=O)=CC=NC2=C1` registered an AC50 cell viability in the test on HCT116 [1] of 18.6 µM. In the test on HCT116 [2], the efficacy was -67.7%.

As to `O=C(Nc1cccnn1)N1CCC(=Cc2cccc(Oc3ccc(C(F)(F)F)cn3)c2)CC1`, in the test with HCT116 [1], the AC50 cell viability was 14.8 µM. The efficacy in the test on HCT116 [2] was -72.6%.

Turning to `NC(=O)c1cccc2nc(-c3ccc([C@H]4CCCN4)cc3F)[nH]c12`, the AC50 cell viability with HCT116 [1] turned out to be 10.5 µM. Besides, the efficacy in the test on HCT116 [2] is -67.3%.

In the test with HCT116 [1], `NC(=O)c1ccccc1Nc1ccnc(Nc2cccc(O)c2)n1` gave an AC50 cell viability of 5.9 µM. Besides, the efficacy in the test on HCT116 [2] was -95.9%.

Take `Nc1nccc(-c2c(-c3ccc(F)cc3)ncn2C2CCN(Cc3ccon3)CC2)n1`: the AC50 cell viability in the test with HCT116 [1] came out at 13.2 µM. Moreover, the efficacy in the test with HCT116 [2] was -56.5%.

The compound `NCC1CCN(c2nccc(-c3ccc4ccccc4c3)n2)CC1` came in with an AC50 cell viability in the test with HCT116 [1] of 14.8 µM. Further, the efficacy with HCT116 [2] was -126%.

On to `NC[C@@](O)(c1ccc(Cl)cc1)c1ccc(-c2cn[nH]c2)cc1`, for which, in the test with HCT116 [1], the AC50 cell viability stood at 7.42 µM. Also, the efficacy with HCT116 [2] is -109%.

Compound `O=C(NCCCNc1nc(Nc2ccc(N3CCOCC3)cc2)ncc1C1CC1)C1CCC1` had an AC50 cell viability in the test with HCT116 [1] of 5.9 µM. Also, the efficacy in the test on HCT116 [2] was -84.5%.

`Oc1ccc(-c2nc(-c3ccncc3)c(-c3ccc(F)cc3)[nH]2)cc1` had an AC50 cell viability with HCT116 [1] of 23.5 µM. In the test with HCT116 [2], the efficacy is -80%.

`OCCC#Cc1nc(-c2ccc(F)cc2)c(-c2ccncc2)n1CCCc1ccccc1`: in the test on HCT116 [1], the AC50 cell viability turned out to be 23.5 µM. Besides, the efficacy with HCT116 [2] is -64.2%.
